Reference: ChEMBL document CHEMBL5634165, “Design, synthesis and activity evaluation of quinolinone derivatives as EZH2 inhibitors” (Bioorg Med Chem Lett, 2024)
Activity calls are given as the source filed them. The rule behind the calls is not given here.

Key:
[1] = target: Histone-lysine N-methyltransferase EZH2 (Homo sapiens, UniProt Q15910, Y641F); experiment: Inhibition of EZH2 Y641F mutant (unknown origin)
[2] = tested on: HeLa; experiment: Antiproliferative activity against human HeLa cells by MTT assay; type: functional, cell-based
[3] = tested on: A549; experiment: cells; conditions: Homo sapiens
Description: Antiproliferative activity against human A549 cells by MTT assay

[4] = target: T1, Histone-lysine N-methyltransferase EZH2 (Homo sapiens, UniProt Q15910); experiment: Inhibition of EZH2 (unknown origin)
Target sequence in this assay (Q15910 whole entry): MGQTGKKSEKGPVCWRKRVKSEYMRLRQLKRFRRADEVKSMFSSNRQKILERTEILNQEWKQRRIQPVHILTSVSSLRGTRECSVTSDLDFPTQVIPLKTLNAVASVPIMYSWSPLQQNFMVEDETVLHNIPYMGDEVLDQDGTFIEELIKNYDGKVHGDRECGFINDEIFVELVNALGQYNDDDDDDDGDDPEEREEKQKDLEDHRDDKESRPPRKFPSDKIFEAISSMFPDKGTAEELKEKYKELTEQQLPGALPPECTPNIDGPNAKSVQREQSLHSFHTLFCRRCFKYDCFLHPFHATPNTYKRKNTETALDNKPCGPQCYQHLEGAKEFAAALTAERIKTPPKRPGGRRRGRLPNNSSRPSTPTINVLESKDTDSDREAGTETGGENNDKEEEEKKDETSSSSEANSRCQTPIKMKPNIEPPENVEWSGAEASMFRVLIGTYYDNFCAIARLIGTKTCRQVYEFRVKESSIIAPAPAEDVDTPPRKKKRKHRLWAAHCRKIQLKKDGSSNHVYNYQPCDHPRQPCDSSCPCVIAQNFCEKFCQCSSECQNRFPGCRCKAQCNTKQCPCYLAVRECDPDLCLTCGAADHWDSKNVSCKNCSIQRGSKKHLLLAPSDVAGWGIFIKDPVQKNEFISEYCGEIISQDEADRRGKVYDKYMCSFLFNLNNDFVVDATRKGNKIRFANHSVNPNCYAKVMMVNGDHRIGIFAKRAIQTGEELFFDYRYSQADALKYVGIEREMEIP

[5] = tested on: A549; experiment: Induction of apoptosis in human A549 cells assessed as late apoptotic cells incubated for 24 hrs by Annexin V/PI staining based flow cytometry analysis (reference value: 5.03 %); type: functional
[6] = tested on: A549; experiment: Induction of apoptosis in human A549 cells assessed as necrotic cells incubated for 24 hrs by Annexin V/PI staining based flow cytometry analysis (reference value: 1.35 %); type: functional
[7] = tested on: A549; experiment: Induction of apoptosis in human A549 cells assessed as viable cells incubated for 24 hrs by Annexin V/PI staining based flow cytometry analysis (reference value: 91.6 %); type: functional
[8] = tested on: A549; experiment: Induction of apoptosis in human A549 cells assessed as early apoptotic cells incubated for 24 hrs by Annexin V/PI staining based flow cytometry analysis (reference value: 1.17 %); type: functional
[9] = tested on: A549; experiment: Inhibition of colony formation in human A549 cells assessed as clone formation rate relative to control; type: functional; set-up: concentration or dose not given beside the values
[10] = tested on: HeLa; experiment: Inhibition of colony formation in human HeLa cells assessed as clone formation rate relative to control; type: functional; set-up: scale not given: the % may be the effect or the level left
[11] = tested on: HeLa; experiment: Induction of apoptosis in human HeLa cells assessed as early apoptotic cells by Annexin V/PI staining based flow cytometry analysis (reference value: 1.72 %); type: functional
[12] = tested on: HeLa; experiment: Inhibition of cell migration in human HeLa cells assessed as reduction of cell scratch width incubated for 24 hrs; type: functional, cell-based
[13] = tested on: HeLa; experiment: Induction of apoptosis in human HeLa cells assessed as late apoptotic cells by Annexin V/PI staining based flow cytometry analysis (reference value: 6.46 %); type: functional
[14] = tested on: HeLa; experiment: Induction of apoptosis in human HeLa cells assessed as viable cells by Annexin V/PI staining based flow cytometry analysis (reference value: 91.0 %); type: functional
[15] = tested on: HeLa; experiment: Induction of apoptosis in human HeLa cells assessed as nectrotic cells by Annexin V/PI staining based flow cytometry analysis (reference value: 0.782 %); type: functional
[16] = target: T1, Histone-lysine N-methyltransferase EZH2; experiment: Inhibition of EZH2 in human A549 cells assessed as reduction in H3K27me3 expression level at 3 uM incubated for 72 hrs by Western blotting analysis; type: cell-based
Target sequence in this assay (Q15910 whole entry, looked up): as the sequence (Q15910 whole entry) above

[17] = target: T1, Histone-lysine N-methyltransferase EZH2; experiment: Inhibition of EZH2 in human A549 cells assessed as reduction in H3K27me3 expression level incubated for 72 hrs by Western blotting analysis; type: cell-based; conditions: dose 1-3 µM
Target sequence in this assay (Q15910 whole entry, looked up): as the sequence (Q15910 whole entry) above

Chain of Histone-lysine N-methyltransferase EZH2 (Homo sapiens, UniProt Q15910, Y641F) (Q15910 whole entry Y641F): as the sequence (Q15910 whole entry) above, with Y641F counted along it

| IC50 [1] [nM] | IC50 [2] [nM] | IC50 [3] [nM] | IC50 [4] [nM] | inhibition [16] | inhibition [17] | Compound | Activity [5] [%] | Activity [6] [%] | Activity [7] [%] | Activity [8] [%] | Activity [9] [%] | Activity [10] [%] | Activity [11] [%] | inhibition [12] | Activity [13] [%] | Activity [14] [%] | Activity [15] [%] |
| --- | --- | --- | --- | --- | --- | --- | --- | --- | --- | --- | --- | --- | --- | --- | --- | --- | --- |
| 9.41 | 46300 | > 50000 | 8.21 |  |  | Cc1cc(C)c(CNC(=O)c2cc(-c3ccc(Oc4ccccc4)cc3)cc3[nH]c(=O)ccc23)c(=O)[nH]1 |  |  |  |  |  |  |  |  |  |  |  |
| 8.87 | > 50000 | 38300 | 5.84 |  |  | COc1cccc(OC)c1-c1cc(C(=O)NCc2c(C)cc(C)[nH]c2=O)c2ccc(=O)[nH]c2c1 |  |  |  |  |  |  |  |  |  |  |  |
| 11.7 | > 50000 | > 50000 | 8.23 |  |  | Cc1cc(C)c(CNC(=O)c2cc(-c3ccc4ncccc4c3)cc3[nH]c(=O)ccc23)c(=O)[nH]1 |  |  |  |  |  |  |  |  |  |  |  |
| 7.4 | 29400 | 13400 | 1.67 |  |  | Cc1cc(C)c(CNC(=O)c2cc(-c3ccc(-c4ccccc4)cc3)cc3[nH]c(=O)ccc23)c(=O)[nH]1 | 47.3 | 3.6 | 38.4 | 10.1 | 42 |  |  |  |  |  |  |
| 5.43 | 18400 | 12300 | 0.94 | Active |  | COc1cc(-c2cc(C(=O)NCc3c(C)cc(C)[nH]c3=O)c3ccc(=O)[nH]c3c2)ccc1F | 17.3 | 0.8 | 78.2 | 3.63 | 46 | 39 | 5.85 | Active | 33.3 | 58.5 | 4.32 |
| 10.3 | 43200 | 19600 | 6.27 |  |  | Cc1cc(C)c(CNC(=O)c2cc(-c3ccccc3)cc3[nH]c(=O)ccc23)c(=O)[nH]1 |  |  |  |  |  |  |  |  |  |  |  |
| 10.4 | > 50000 | 35700 | 4.21 |  |  | COc1c(C)cccc1-c1cc(C(=O)NCc2c(C)cc(C)[nH]c2=O)c2ccc(=O)[nH]c2c1 |  |  |  |  |  |  |  |  |  |  |  |
| 8.54 | 47400 | 24300 | 3.78 |  |  | Cc1cc(C)c(CNC(=O)c2cc(-c3cccnc3)cc3[nH]c(=O)ccc23)c(=O)[nH]1 |  |  |  |  |  |  |  |  |  |  |  |
| 12.2 | > 50000 | 30300 | 7.42 |  |  | Cc1cc(C)c(CNC(=O)c2cc(-c3cccc4ccccc34)cc3[nH]c(=O)ccc23)c(=O)[nH]1 |  |  |  |  |  |  |  |  |  |  |  |
| 7.48 | > 50000 | 20600 | 6.63 |  |  | COc1ccc2cc(-c3cc(C(=O)NCc4c(C)cc(C)[nH]c4=O)c4ccc(=O)[nH]c4c3)ccc2c1 |  |  |  |  |  |  |  |  |  |  |  |
| 7.76 | 33800 | 27600 | 2.74 |  |  | Cc1ccc(-c2cc(C(=O)NCc3c(C)cc(C)[nH]c3=O)c3ccc(=O)[nH]c3c2)cc1 |  |  |  |  |  |  |  |  |  |  |  |
| 5.68 | 25300 | 11000 | 1.01 |  | Dose-Dependent Effect | Cc1cc(C)c(CNC(=O)c2cc(-c3ccc(Br)cc3)cc3[nH]c(=O)ccc23)c(=O)[nH]1 | 51.8 | 1.07 | 34.7 | 12.4 | 40 | 45 | 4.72 | Active | 16.5 |  |  |
|  | 27700 | 15800 |  |  |  | CCN(c1cc(-c2ccc(CN3CCOCC3)cc2)cc(C(=O)NCc2c(C)cc(C)[nH]c2=O)c1C)C1CCOCC1 [TAZEMETOSTAT] | 52.6 | 10.8 | 34.3 | 2.3 | 45 | 47 | 5.21 |  | 19.6 | 74 | 1.2 |
| 6.45 | 20400 | 12800 | 2.12 |  |  | Cc1cc(C)c(CNC(=O)c2cc(-c3ccc(C(=O)O)cc3)cc3[nH]c(=O)ccc23)c(=O)[nH]1 |  |  |  |  | 58 | 49 |  |  |  |  |  |
